Source: the supplement of paper PMC10331698
± gives the standard deviation of the averaged measurements.

Columns and labels:
Experiment in all cases: level (log10 ratio to DMSO vehicle control); higher = higher biomarker level / cell amount than vehicle control
[1] = compound: OCC(F)(F)OC(F)(F)C(F)(F)OC(F)(F)C(F)(F)OC(F)(F)CO [1H,1H,11H,11H-Perfluorotetraethylene glycol] (in DMSO)
Experimental: (§1)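 BioMAP Diversity Plus panel of 12 human primary cell co-culture systems (3C, 4H, LPS, SAg, BT, BF4T, BE3C, CASM3C, HDF3CGF, KF3CT, MyoF, Mphg). Compounds were added 1 h before stimulation and left for 24 h (MyoF 48 h; BT 72 h for soluble read-outs or 6 d for IgG). Biomarkers were read by ELISA, cytotoxicity by SRB, PBMC viability and proliferation by Alamar Blue. Each well value was divided by the mean of 8 DMSO control wells on the same plate and log10 transformed; duplicate blinded samples were tested at 4 concentrations.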

[2] = compound: OCCC(F)(F)C(F)(F)C(F)(F)C(F)(F)F [4:2 Fluorotelomer alcohol] (in DMSO)
Experimental: as §1

[3] = compound: O=S(=O)(O)CCC(F)(F)C(F)(F)C(F)(F)C(F)(F)C(F)(F)C(F)(F)C(F)(F)C(F)(F)F [8:2 Fluorotelomer sulfonic acid] (in DMSO)
Experimental: as §1

[4] = compound: C[C@@H]1C[C@H]2[C@@H]3CCC4=CC(=O)C=C[C@]4(C)[C@@]3(F)[C@@H](O)C[C@]2(C)[C@@]1(O)C(=O)COP(=O)(O)O [Dexamethasone sodium phosphate] (in DMSO)
Experimental: as §1

[5] = compound: CO[Si](C)(CCC(F)(F)C(F)(F)C(F)(F)C(F)(F)C(F)(F)C(F)(F)F)OC [Dimethoxymethyl((perfluorohexyl)ethyl)silane] (in DMSO)
Experimental: as §1

[6] = compound: O=C(O)C(F)(OC(F)(F)C(F)(OC(F)(F)C(F)(OC(F)(F)C(F)(F)C(F)(F)F)C(F)(F)F)C(F)(F)F)C(F)(F)F [Perfluoro-(2,5,8-trimethyl-3,6,9-trioxadodecanoic)acid] (in DMSO)
Experimental: as §1

Test System	level (log10) ([1]; 6700 nM)	level (log10) ([1]; 20000 nM)	level (log10) ([1]; 60000 nM)	level (log10) ([2]; 6700 nM)	level (log10) ([2]; 20000 nM)	level (log10) ([2]; 60000 nM)	level (log10) ([3]; 6700 nM)	level (log10) ([3]; 20000 nM)	level (log10) ([3]; 60000 nM)	level (log10) ([4]; 1500 nM)	level (log10) ([4]; 4400 nM)	level (log10) ([4]; 13000 nM)	level (log10) ([4]; 40000 nM)	level (log10) ([5]; 6700 nM)	level (log10) ([5]; 20000 nM)	level (log10) ([6]; 1100 nM)	level (log10) ([6]; 3300 nM)	level (log10) ([6]; 10000 nM)
3C:CD87/uPAR	0.008 ± 0.03	-0.007 ± 0.023	-0.0005 ± 0.011	-0.015 ± 0.014	-0.0215 ± 0.028	0.005 ± 0.0071	0.0195 ± 0.016	-0.001 ± 0.058	-0.003 ± 0.03	0.0545 ± 0.013	0.048 ± 0.02	0.0455 ± 0.00071	0.016 ± 0.016	-0.002 ± 0.0071	-0.026 ± 0.021	-0.0075 ± 0.016	-0.0005 ± 0.011	-0.0105 ± 0.019
3C:CXCL8/IL-8	0.003 ± 0.025	-0.009 ± 0.0099	-0.0045 ± 0.0035	-0.002	0.017 ± 0.031	0.044 ± 0.059	-0.0005 ± 0.13	0.012 ± 0.057	0.079 ± 0.024	0.014 ± 0.027	-0.0015 ± 0.0035	-0.0035 ± 0.032	-0.007 ± 0.062	-0.007 ± 0.0014	0.011 ± 0.0057	-0.004 ± 0.021	-0.015 ± 0.011	0.005 ± 0.024
3C:CXCL9/MIG	0.0095 ± 0.022	0.0065 ± 0.026	0.012 ± 0.0028	-0.01 ± 0.0057	-0.0025 ± 0.0078	0 ± 0.0042	-0.004 ± 0.0014	0.004 ± 0.013	-0.0045 ± 0.0035	0.0025 ± 0.0021	0.001 ± 0.0085	-0.004 ± 0.0071	0.003 ± 0.0085	-0.011 ± 0.0014	0.003 ± 0.0071	0.0125 ± 0.0078	-0.0035 ± 0.021	0.007 ± 0.0071
3C:HLA-DR	-0.0055 ± 0.049	-0.001 ± 0.023	-0.047 ± 0.028	-0.019	-0.0145 ± 0.0092	0 ± 0.011	-0.0155 ± 0.012	-0.011 ± 0.0071	-0.011 ± 0.0085	-0.0025 ± 0.012	-0.0065 ± 0.022	0.0035 ± 0.0035	0.0135 ± 0.0035	0.013 ± 0.014	0.029 ± 0.013	-0.0045 ± 0.0078	-0.002 ± 0.0057	0.0115 ± 0.013
3C:Proliferation	-0.04 ± 0.067	-0.116 ± 0.061	-0.248 ± 0.049	-0.011 ± 0.014	-0.0175 ± 0.032	0.013 ± 0.024	0.004 ± 0.086	-0.0315 ± 0.083	-0.053 ± 0.018	-0.0115 ± 0.005	0.011 ± 0.092	-0.0045 ± 0.052	0.015 ± 0.02	0.003 ± 0.014	-0.0055 ± 0.03	0.007 ± 0.02	0.013 ± 0.0085	-0.011 ± 0.013
3C:SRB	0.003 ± 0.0071	-0.0185 ± 0.013	-0.079 ± 0.033	-0.006 ± 0.0085	-0.0065 ± 0.011	-0.0045 ± 0.0092	-0.017 ± 0.0057	-0.019 ± 0.018	-0.0705 ± 0.028	-0.0005 ± 0.00071	-0.005 ± 0.0085	-0.0025 ± 0.025	0.0035 ± 0.025	-0.006 ± 0.0028	0.0085 ± 0.0035	-0.0025 ± 0.005	-0.0065 ± 0.0035	0.003 ± 0.0071
4H:CCL2/MCP-1	-0.0525 ± 0.029	-0.126 ± 0.0071	-0.196 ± 0.027	-0.101 ± 0.0071	-0.0325 ± 0.0064	0.0115 ± 0.025	-0.001 ± 0.014	-0.033 ± 0.016	0.0125 ± 0.046	-0.0075 ± 0.018	0.005 ± 0.033	0.017 ± 0.041	0.043 ± 0.025	-0.05 ± 0.033	0.011 ± 0.12	0.0005 ± 0.012	-0.017 ± 0.0099	0.0205 ± 0.021
4H:CCL26/Eotaxin-3	-0.0255 ± 0.0064	-0.017 ± 0.044	0.0375 ± 0.028	-0.018 ± 0.016	-0.0045 ± 0.0035	-0.0015 ± 0.0035	0.0095 ± 0.06	-0.0325 ± 0.015	-0.075 ± 0.0042	-0.0175 ± 0.0035	-0.0315 ± 0.0035	-0.0285 ± 0.029	-0.052 ± 0.078	-0.0125 ± 0.023	0.011 ± 0.014	0.0005 ± 0.0078	-0.0095 ± 0.023	-0.0075 ± 0.005
4H:CD62P/P-selectin	-0.0065 ± 0.035	-0.0155 ± 0.018	-0.0055 ± 0.0078	-0.0235 ± 0.037	-0.02 ± 0.0071	0.025 ± 0.023	-0.0315 ± 0.09	-0.034 ± 0.099	-0.015 ± 0.071	-0.0355 ± 0.037	-0.038 ± 0.0042	-0.022 ± 0.011	-0.033 ± 0.047	-0.0095 ± 0.033	-0.0135 ± 0.036	-0.002 ± 0.069	0.0295 ± 0.0064	-0.0445 ± 0.026
4H:CD87/uPAR	0.001 ± 0.082	-0.0065 ± 0.053	0.0315 ± 0.012	-0.026 ± 0.011	-0.0105 ± 0.023	-0.005 ± 0.0028	0.026 ± 0.0028	-0.01 ± 0.023	-0.0345 ± 0.015	-0.0055 ± 0.0021	-0.0195 ± 0.022	-0.024 ± 0.086	-0.0375 ± 0.094	0.004 ± 0.028	0.0195 ± 0.013	0.001 ± 0.027	-0.0025 ± 0.011	0.0075 ± 0.0092
4H:CD106/VCAM-1	0.0345 ± 0.011	-0.016 ± 0.011	-0.078 ± 0.016	-0.025 ± 0.023	-0.0105 ± 0.013	0.0085 ± 0.0078	-0.0065 ± 0.025	-0.018 ± 0.0014	-0.0375 ± 0.0021	0.004 ± 0.02	-0.011 ± 0.0042	-0.012 ± 0.0028	-0.005 ± 0.011	0.003 ± 0.011	0.0265 ± 0.0035	0.019 ± 0.013	0.027 ± 0.014	0.049 ± 0.0099
4H:SRB	-0.0045 ± 0.013	-0.032 ± 0.023	-0.0795 ± 0.037	-0.0005 ± 0.012	-0.004 ± 0.0014	0.0135 ± 0.015	-0.012 ± 0.0014	-0.0135 ± 0.012	-0.018 ± 0.033	0.001 ± 0.011	-0.0135 ± 0.005	0.005 ± 0.014	0.007 ± 0.038	-0.015 ± 0.013	0.0065 ± 0.00071	0.0045 ± 0.0064	0 ± 0.0028	0.009 ± 0.0057
4H:VEGFR2	0.008 ± 0.042	0.003 ± 0.05	0.07 ± 0.051	-0.071 ± 0.035	-0.021 ± 0.033	-0.0205 ± 0.0064	-0.0345 ± 0.12	0.003 ± 0.0014	-0.026 ± 0.0028	0.025 ± 0.0057	-0.0665 ± 0.057	-0.0115 ± 0.069	-0.004 ± 0.059	-0.023	-0.001 ± 0.027	-0.002 ± 0.014	-0.0135 ± 0.005	0.001 ± 0.0071
BE3C:CD54/ICAM-1	-0.004 ± 0.011	0.012 ± 0.0099	-0.048 ± 0.0099	-0.019 ± 0.024	-0.008 ± 0.0057	0.01 ± 0.0028	0.0215 ± 0.018	0.013 ± 0.0042	-0.02 ± 0.014	-0.0035 ± 0.033	-0.0265 ± 0.005	-0.0205 ± 0.0021	-0.0105 ± 0.021	0 ± 0.0085	0 ± 0.0042	0.0115 ± 0.037	0.0145 ± 0.033	0.0295 ± 0.033
